Measurements taken from patent US20100317709A1, “SPHINGOSINE-1-PHOSPHATE (S1P) RECEPTOR COMPOUNDS” (UNIVERSITEIT LEIDEN, priority 2007, published 2010).

Columns and labels:
[1] = molecular target: S1P3 receptor (Homo sapiens, UniProt Q99500); test: cAMP accumulation assay at the S1P3 receptor (Lance cAMP 384 kit); format: cell-based; conditions: for EC50: N.D. = not defined because the potency and/or the efficacy were too low, read-out: pEC50 S1P3 (converted); for efficacy (α) S1P3: S1P = 1.00, N.D. = not defined because the potency and/or the efficacy were too low
Chain of S1P3 receptor (Q99500 whole entry): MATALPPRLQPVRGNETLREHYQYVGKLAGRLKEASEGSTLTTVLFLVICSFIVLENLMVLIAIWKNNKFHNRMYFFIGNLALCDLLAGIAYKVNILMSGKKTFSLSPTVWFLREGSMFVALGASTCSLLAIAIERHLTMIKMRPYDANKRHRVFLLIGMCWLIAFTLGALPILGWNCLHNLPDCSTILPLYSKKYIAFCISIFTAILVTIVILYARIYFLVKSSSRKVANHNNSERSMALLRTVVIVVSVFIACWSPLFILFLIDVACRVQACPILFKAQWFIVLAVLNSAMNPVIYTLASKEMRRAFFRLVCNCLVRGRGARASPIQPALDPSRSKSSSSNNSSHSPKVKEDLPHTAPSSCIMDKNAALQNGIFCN
Excerpt: (§1) A primary function of certain cell surface receptors is to activate second messenger systems upon binding of an agonist. The S1P1 receptor selectively binds to and activates Gi-proteins and activation of this receptor subtype thus results in the inhibition of cAMP production. The S1P2 receptor predominantly activates Gq-proteins finally resulting in increases in intracellular calcium. S1P3 receptor activation results in both, an inhibition of cAMP production and an increase in intracellular calcium, via the activation of Gi- and Gq-proteins
(§2) Accordingly, we performed measurements on cAMP accumulation (Lance cAMP 384 kit, Perkin Elmer, Zaventem, Belgium) and measurements on changes in intracellular calcium (for method see Jongsma et al., 2006) (8).

[2] = molecular target: S1P1 receptor (Homo sapiens, UniProt P21453); test: cAMP accumulation assay at the S1P1 receptor (Lance cAMP 384 kit); format: cell-based; conditions: for EC50: N.D. = not defined because the potency and/or the efficacy were too low, read-out: pEC50 S1P1 (converted); for efficacy (α) S1P1: S1P = 1.00, N.D. = not defined because the potency and/or the efficacy were too low
Chain of S1P1 receptor (P21453 whole entry): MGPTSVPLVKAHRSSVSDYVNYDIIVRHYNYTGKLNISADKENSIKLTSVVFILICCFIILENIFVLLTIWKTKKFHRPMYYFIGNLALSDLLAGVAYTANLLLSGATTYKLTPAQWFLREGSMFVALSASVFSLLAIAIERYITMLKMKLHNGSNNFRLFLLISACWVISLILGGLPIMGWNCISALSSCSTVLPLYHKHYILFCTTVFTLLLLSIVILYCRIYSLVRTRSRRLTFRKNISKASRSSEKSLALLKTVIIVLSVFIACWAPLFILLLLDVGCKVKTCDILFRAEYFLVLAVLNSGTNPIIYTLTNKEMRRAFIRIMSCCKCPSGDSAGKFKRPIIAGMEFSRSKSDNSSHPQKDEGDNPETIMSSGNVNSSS
Excerpt: as §1, §2

Q: With CCc1c(C)sc(N)c1C(=O)c1ccccc1 [LUF5464, (2-Amino-4-ethyl-5-methyl-3-thienyl)(phenyl)methanone] as the compound, how does the melting point read?
A: Its melting point is 129 to 131 °C.

Q: And the EC50 [1]?
A: Its EC50 is over 10000 nM.

Q: What about the “efficacy (α) S1P3” value [1] of the same compound?
A: The value was “+/−1 (n = 3)”.

Q: Which EC50 [1] does the source give for Nc1sc2c(c1C(=O)c1ccccc1)CCCC2 [LUF5465, (2-Amino-4,5,6,7-tetrahydrobenzo[b]thiophen-3-yl)(phenyl)methanone] here?
A: The EC50 was over 10000 nM.

Q: And the “efficacy (α) S1P3” value [1]?
A: The value was over 0.5.

Q: For CCc1c(C)sc(N)c1C(=O)c1cccc(C(F)(F)F)c1 [LUF5468, (2-Amino-4-ethyl-5-methyl-3-thienyl)[3-(trifluoromethyl)phenyl]methanone], which melting point is on record?
A: Its melting point is 100 to 101 °C.

Q: For Nc1sc2c(c1C(=O)c1cccc(C(F)(F)F)c1)CCCC2 [LUF5469, (2-Amino-4,5,6,7-tetrahydrobenzo[b]thiophen-3-yl)[3-(trifluoromethyl)phenyl]methanone], which melting point is on record?
A: Its melting point is 122 to 123 °C.

Q: What about the EC50 [1] of the same compound?
A: The EC50 was 1290 nM.

Q: What about the “efficacy (α) S1P3” value [1] of the same compound?
A: Its value is 1.07.

Q: Which melting point does the source give for Cc1sc(N)c(C(=O)c2cccc(Cl)c2)c1C [LUF5471, (2-Amino-4,5-dimethyl-3-thienyl)(3-chlorophenyl)methanone] here?
A: The melting point was 114 to 116 °C.

Q: Which melting point does the source give for CCc1c(C)sc(N)c1C(=O)c1cccc(Cl)c1 [LUF5472, (2-Amino-4-ethyl-5-methyl-3-thienyl)(3-chlorophenyl)methanone] here?
A: The melting point was 99 to 102 °C.

Q: Which melting point does the source give for Nc1sc2c(c1C(=O)c1cccc(Cl)c1)CCCC2 [LUF5473, (2-Amino-4,5,6,7-tetrahydrobenzo[b]thiophen-3-yl)(3-chlorophenyl)methanone] here?
A: The melting point was 114 to 115 °C.

Q: What about the EC50 [2] of the same compound?
A: The EC50 was 1000 nM.

Q: And the “efficacy (α) S1P1” value [2]?
A: Its value is 0.40.

Q: What about the EC50 [1] of the same compound?
A: The EC50 was 1860 nM.

Q: And the “efficacy (α) S1P3” value [1]?
A: Its value is 1.07.

Q: Which EC50 [1] does the source give for Nc1sc2c(c1C(=O)c1ccc(Cl)cc1)CCCC2 [LUF5480, (2-Amino-4,5,6,7-tetrahydrobenzo[b]thiophen-3-yl)(4-chlorophenyl)methanone] here?
A: The EC50 was 6760 nM.

Q: And the “efficacy (α) S1P3” value [1]?
A: The value was 0.37.

Q: Which melting point does the source give for CCc1c(C)sc(N)c1C(=O)c1ccc(Cl)cc1 [LUF5482, (2-Amino-4-ethyl-5-methyl-3-thienyl)(4-chlorophenyl)methanone] here?
A: The melting point was 108 to 110 °C.

Q: Which results are given for Nc1sc2c(c1C(=O)c1ccc(Cl)c(Cl)c1)CCCC2 [LUF5484, (2-Amino-4,5,6,7-tetrahydrobenzo[b]thiophen-3-yl)(3,4-dichlorophenyl)methanone]?
A: melting point: 152 to 154 °C; EC50 [1]: > 10000 nM; efficacy (α) S1P3 [1]: <0.5 (n = 2)

Q: Which melting point does the source give for Cc1sc(N)c(C(=O)c2ccc(Cl)cc2)c1C [LUF5487, (2-Amino-4,5-dimethyl-3-thienyl)(4-chlorophenyl)methanone] here?
A: The melting point was 123 to 125 °C.

Q: For Nc1sc(-c2ccccc2)cc1C(=O)c1ccc(Cl)cc1 [LUF5488, (2-Amino-5-phenyl-3-thienyl)(4-chlorophenyl)methanone], which melting point is on record?
A: The melting point was 173 to 175 °C.

Q: For Nc1sc2c(c1C(=O)c1ccc(C(F)(F)F)cc1)CCCC2 [LUF5489, (2-Amino-4,5,6,7-tetrahydrobenzo[b]thiophen-3-yl)[4-(trifluoromethyl)phenyl]methanone], which melting point is on record?
A: Its melting point is 145 to 147 °C.

Q: And the EC50 [1]?
A: The EC50 was over 10000 nM.

Q: With Nc1sc2c(c1C(=O)c1ccc(Br)cc1)CCCC2 [LUF5490, (2-Amino-4,5,6,7-tetrahydrobenzo[b]thiophen-3-yl)(4-bromophenyl)methanone] as the compound, how does the melting point read?
A: The melting point was 152 to 153 °C.

Q: And the EC50 [1]?
A: Its EC50 is 1150 nM.

Q: What about the “efficacy (α) S1P3” value [1] of the same compound?
A: Its value is 0.41.

Q: With COC(=O)c1ccc(C(=O)c2c(N)sc3c2CCCC3)cc1 [LUF5492, Methyl 4[(2-Amino-4,5,6,7-tetrahydrobenzo[b]thiophen-3-yl)-carbonyl]benzoate] as the compound, how does the melting point read?
A: The melting point was 159 to 160 °C.

Q: What about the EC50 [1] of the same compound?
A: Its EC50 is 933 nM.

Q: And the “efficacy (α) S1P3” value [1]?
A: The value was 0.25.

Q: With Nc1sc2c(c1C(=O)c1ccc(C(=O)O)cc1)CCCC2 [LUF5493, 4-[(2-Amino-4,5,6,7-tetrahydrobenzo[b]thiophen-3-yl)-carbonyl]benzoic acid] as the compound, how does the melting point read?
A: The melting point was 232 to 233 °C.

Q: For Nc1sc(CN2C(=O)c3ccccc3C2=O)cc1C(=O)c1cccc(C(F)(F)F)c1 [LUF5496, 2-({5-Amino-4-[3-(trifluoromethyl)benzoyl]-2-thienyl}methyl)-1,3-isoindolinedione], which melting point is on record?
A: The melting point was 199 to 200 °C.

Q: And the EC50 [1]?
A: The EC50 was over 10000 nM.

Q: Which melting point does the source give for Nc1sc2c(c1C(=O)c1ccc([N+](=O)[O-])cc1)CCCC2 [LUF5526, (2-Amino-4,5,6,7-tetrahydrobenzo[b]thiophen-3-yl)(4-nitrophenyl)methanone] here?
A: The melting point was 202 to 204 °C.

Q: With Cc1ccc(C(=O)c2c(N)sc3c2CCCC3)cc1 [LUF5527, (2-Amino-4,5,6,7-tetrahydrobenzo[b]thiophen-3-yl)(4-methylphenyl)methanone] as the compound, how does the melting point read?
A: The melting point was 155 to 156 °C.

Q: What about the EC50 [1] of the same compound?
A: The EC50 was 3090 nM.

Q: What about the “efficacy (α) S1P3” value [1] of the same compound?
A: The value was 0.96.

Q: With Nc1sc2c(c1C(=O)c1ccc(I)cc1)CCCC2 [LUF5528, (2-Amino-4,5,6,7-tetrahydrobenzo[b]thiophen-3-yl)(4-iodophenyl)methanone] as the compound, how does the melting point read?
A: Its melting point is 150 to 152 °C.

Q: And the EC50 [1]?
A: Its EC50 is over 10000 nM.

Q: What about the “efficacy (α) S1P3” value [1] of the same compound?
A: The value was <0.5 (n = 2).

Q: With Nc1sc2c(c1C(=O)c1ccccc1Cl)CCCC2 [LUF5532, (2-Amino-4,5,6,7-tetrahydrobenzo[b]thiophen-3-yl)(2-chlorophenyl)methanone] as the compound, how does the melting point read?
A: Its melting point is 145 to 147 °C.

Q: What about the EC50 [2] of the same compound?
A: Its EC50 is 4170 nM.

Q: And the “efficacy (α) S1P1” value [2]?
A: Its value is 0.63.

Q: And the EC50 [1]?
A: Its EC50 is 4170 nM.

Q: What about the “efficacy (α) S1P3” value [1] of the same compound?
A: Its value is 0.71.

Q: What does the source list for Nc1sc2c(c1C(=O)c1cccc(I)c1)CCCC2 [LUF5533, (2-Amino-4,5,6,7-tetrahydrobenzo[b]thiophen-3-yl)(3-iodophenyl)methanone]?
A: melting point: 160 to 162 °C; EC50 [2]: 1380 nM; efficacy (α) S1P1 [2]: 0.46; EC50 [1]: 1260 nM; efficacy (α) S1P3 [1]: 0.94

Q: With CCCCCCCCCCCCC/C=C/[C@@H](O)[C@@H](N)COP(=O)(O)O [S1P, sphingosine-1-phosphate] as the compound, how does the EC50 [2] read?
A: Its EC50 is 0.138 nM.

Q: What about the “efficacy (α) S1P1” value [2] of the same compound?
A: Its value is 1.00.

Q: What about the EC50 [1] of the same compound?
A: Its EC50 is 0.347 nM.

Q: What about the “efficacy (α) S1P3” value [1] of the same compound?
A: The value was 1.00.
